Data taken from patent US7311893B2, “Amyloid targeting imaging agents and uses thereof” (Neurochem (International) Limited, priority 2000, dated 2007).

What follows are compounds tested on insoluble amyloid or amyloid plaques (assay: binding data for amyloid-targeting moieties (FIGS. 1 and 2)). Details: insoluble vs soluble amyloid; data in FIGS. 1 and 2.

Compound | binding to insoluble amyloid or amyloid plaques in preference to soluble amyloid
1,6-hexanedisulfonate | bind insoluble amyloid or amyloid plaques in preference to soluble amyloid
O=S(=O)(O)CCCN1CCN(CCCS(=O)(=O)O)CC1 [1,4-piperazinebis(propanesulfonic acid)] | bind insoluble amyloid or amyloid plaques in preference to soluble amyloid
O=S(=O)(O)CCCNC1(CO)CCCC1 [3-(1-hydroxymethyl-1-cyclopentyl)amino-1-propane sulfonic acid] | bind insoluble amyloid or amyloid plaques in preference to soluble amyloid
O=S(=O)(O)CCCNCCCCCCO [3-(6-hydroxy-1-hexyl)amino-1-propane sulfonic acid] | bind insoluble amyloid or amyloid plaques in preference to soluble amyloid
O=S(=O)(O)CCCN1CC=CCC1 [3-[1-(1,2,3,6-tetrahydropyridinyl)]-1-propanesulfonic acid] | bind insoluble amyloid or amyloid plaques in preference to soluble amyloid
O=S(=O)(O)NCCCO [3-hydroxypropylsulfamic acid] | bind insoluble amyloid or amyloid plaques in preference to soluble amyloid
O=S(=O)(O)CCCCN1CCCCC1 [4-(1-piperidinyl)-1-butanesulfonic acid] | bind insoluble amyloid or amyloid plaques in preference to soluble amyloid
Cc1ccc2nc(-c3ccc(N=NNc4ccc(-c5nc6ccc(C)c(S(=O)(=O)[O-])c6s5)cc4)cc3)sc2c1S(=O)(=O)[O-].[Na+].[Na+] [Thiazole yellow G, reference compound] | bind insoluble amyloid or amyloid plaques in preference to soluble amyloid
NCCCC[C@H](NCCCS(=O)(=O)O)C(=O)O [alpha-N-(3-sulfopropyl)-L-lysine] | bind insoluble amyloid or amyloid plaques in preference to soluble amyloid
COC(=O)CCN1CCc2ccccc2C1.Cl [methyl 2-(2-carboxyethyl)-1,2,3,4-tetrahydroisoquinoline hydrochloride] | bind insoluble amyloid or amyloid plaques in preference to soluble amyloid
